Key:
[1] = High throughput dissolution screening of Aspirin; format: physicochemical; conditions: 10 mg powdered Aspirin in 10 ml deionized water, shaker, UV detector, 37 second sampling frequency for 30 minutes, FIG. 7
Method: A 10 mg of powdered Aspirin standard from Aldrich was weighted into a 20 ml scintillation vial and put on a shaker at a robot platform. The shaker was then turned on and an automated dispensing unit with a 10 ml syringe dispensed 10 ml of deionized water into the 20 ml scintillation vial containing the 10 mg of Aspirin thereby initiating dissolution of the 10 mg of Aspirin into the 10 ml of deionized water to form, over time, a solution having an increasing concentration of aspirin.
Thereafter, an automated sampling unit aspirated approximately 300 μL of the solution (the sample itself never enters the syringe) through an in-line filter allowing a sampled aliquot of the filtered solution to enter a switching valve and fill a 20 μL sample loop connected to the ports of the switching valve. Once the 20 μL sample loop was filled with a portion of the aliquot, the switching valve was switched to a second position by automation, causing the sub-aliquot contained in the 20 μL sample loop to be discharged into an analytical unit. The analytical unit comprised a syringe pump and an UV detector, for determining concentration. At this point, the automated sampling unit returned the remainder portion of the filtered aliquot back through the filter and back into the solution contained in the scintillation vial. […]

[2] = addition of viscogens such as glycerol or Ficoll; cited from earlier work

| time to reach maximum dissolution [1] | Molecule | photo stability [2] |
| --- | --- | --- |
| less than 10 minutes | CC(=O)Oc1ccccc1C(=O)O [Aspirin] | – |
| – | Vitamin-B12 | increase in photo stability |

— US7234365B2, “Methods and systems for dissolution testing” (Symyx Technologies, Inc., priority 2003, dated 2007)
